As a reminder, the MIC is the lowest concentration that inhibits growth of the organism. Low values mean a more susceptible organism, high ones a less susceptible organism.

Results on 10 compounds are retold here after ChEMBL document CHEMBL1240428, “Conventional and microwave assisted synthesis of some new N-[(4-oxo-2-substituted aryl -1, 3-thiazolidine)-acetamidyl]-5-nitroindazoles and its antimicrobial activity” (2010).

Molecules are shown by their SMILES. ≈ marks a conversion by molar mass, not a printed value.

The subject of experiment [1] is Penicillium citrinum. The experiment can be described thus: Antifungal activity against Penicillium citrinum. Format: functional.
The subject of experiment [2] is Fusarium oxysporum. The experiment can be described thus: Antifungal activity against Fusarium oxysporum at 100 ug/mL. Type of experiment: functional. The settings on record: read-out: IZ.
Experiment [3] has as its system Escherichia coli. Kind of experiment: Antibacterial activity against Escherichia coli at 50 ug/mL. Type of experiment: functional. The settings on record: read-out: IZ.
Experiment [4] deals with Escherichia coli. Kind of experiment: Antibacterial activity against Escherichia coli. Type of experiment: functional.
Experiment [5] concerns Salmonella typhi. The experiment can be described thus: Antibacterial activity against Salmonella typhi at 50 ug/mL. The settings on record: read-out: IZ.
For experiment [6], the system named is Salmonella typhi. The experiment can be described thus: Antibacterial activity against Salmonella typhi.
Experiment [7] has as its system Fusarium oxysporum. Kind of experiment: Antifungal activity against Fusarium oxysporum at 50 ug/mL. Type of experiment: functional. The settings on record: read-out: IZ.
Experiment [8] has as its system Aspergillus flavus. Kind of experiment: Antifungal activity against Aspergillus flavus at 50 ug/mL. Type of experiment: functional. The settings on record: read-out: IZ.
The subject of experiment [9] is Penicillium citrinum. Kind of experiment: Antifungal activity against Penicillium citrinum at 100 ug/mL. Format: functional. The settings on record: read-out: IZ.
Experiment [10] has as its system Bacillus subtilis. Kind of experiment: Antibacterial activity against Bacillus subtilis at 100 ug/mL. Format: functional. The settings on record: read-out: IZ.
Experiment [11] relates to Fusarium oxysporum. Kind of experiment: Antifungal activity against Fusarium oxysporum. Format: functional.
Experiment [12] has as its system Bacillus subtilis. The experiment can be described thus: Antibacterial activity against Bacillus subtilis at 50 ug/mL. Type of experiment: functional. The settings on record: read-out: IZ.
For experiment [13], the system named is Penicillium citrinum. Kind of experiment: Antifungal activity against Penicillium citrinum at 50 ug/mL. Format: functional. The settings on record: read-out: IZ.
Experiment [14] concerns Aspergillus flavus. The experiment can be described thus: Antifungal activity against Aspergillus flavus at 100 ug/mL. Format: functional. The settings on record: read-out: IZ.
Experiment [15] concerns Escherichia coli. The experiment can be described thus: Antibacterial activity against Escherichia coli at 100 ug/mL. Format: functional. The settings on record: read-out: IZ.
Experiment [16] deals with Aspergillus flavus. Kind of experiment: Antifungal activity against Aspergillus flavus. Format: functional.
Experiment [17] concerns Bacillus subtilis. The experiment can be described thus: Antibacterial activity against Bacillus subtilis. Type of experiment: functional.
Experiment [18] concerns Salmonella typhi. The experiment can be described thus: Antibacterial activity against Salmonella typhi at 100 ug/mL. The settings on record: read-out: IZ.

Turning to `O=C(Cn1ncc2cc([N+](=O)[O-])ccc21)N/N=C/c1ccccc1O`, the MIC in experiment [1] was found to be 28 µg/mL (≈ 82.5 µM); in experiment [4] it was 20 µg/mL (≈ 58.9 µM); in experiment [6], 20 µg/mL (≈ 58.9 µM); in experiment [11] it was 15 µg/mL (≈ 44.2 µM); in experiment [16] it was 19 µg/mL (≈ 56 µM); in experiment [17], 25 µg/mL (≈ 73.7 µM). Also, the zone of inhibition at 100 µg/mL was 18.5 mm in experiment [2]; 16.8 mm in [9]; 16 mm in [10]; 18 mm in experiment [14]; 18 mm in experiment [15]; 17.5 mm in experiment [18]. In addition, the zone of inhibition at 50 µg/mL came out at 15.4 mm in [3]; 13.8 mm in [5]; 16.2 mm in experiment [7]; 14.9 mm in [8]; 12.8 mm in [12]; 12 mm in experiment [13].

Regarding `O=C(Cn1ncc2cc([N+](=O)[O-])ccc21)N/N=C/c1ccccc1Cl`, the minimum inhibitory concentration (MIC) stood at 22 µg/mL (≈ 61.5 µM) in experiment [1]; 16 µg/mL (≈ 44.7 µM) in experiment [4]; 17 µg/mL (≈ 47.5 µM) in experiment [6]; 13 µg/mL (≈ 36.3 µM) in experiment [11]; 17 µg/mL (≈ 47.5 µM) in experiment [16]; 20 µg/mL (≈ 55.9 µM) in experiment [17]. The zone of inhibition at 100 µg/mL in [2] was found to be 22 mm; in experiment [9], 20.5 mm; in experiment [10] it was 19.4 mm; in experiment [14], 22 mm; in experiment [15], 21 mm; in experiment [18], 21 mm. The zone of inhibition at 50 µg/mL in experiment [3] was determined as 18.2 mm; in experiment [5] it was 16.9 mm; in [7], 20.1 mm; in experiment [8], 19 mm; in experiment [12], 16 mm; in [13], 15.8 mm.

Regarding `O=C(Cn1ncc2cc([N+](=O)[O-])ccc21)N/N=C/c1ccc(Cl)cc1`, the minimal inhibitory concentration (MIC) in experiment [1] came to 20 µg/mL (≈ 55.9 µM); in experiment [4], 17 µg/mL (≈ 47.5 µM); in [6], 17 µg/mL (≈ 47.5 µM); in [11], 13 µg/mL (≈ 36.3 µM); in experiment [16], 17 µg/mL (≈ 47.5 µM); in experiment [17], 18 µg/mL (≈ 50.3 µM). For the same compound, the zone of inhibition at 100 µg/mL in experiment [2] was 22.9 mm; in [9] it was 21.4 mm; in experiment [10] it was 20.1 mm; in experiment [14], 22.7 mm; in experiment [15], 21.9 mm; in [18], 21.7 mm. The zone of inhibition at 50 µg/mL in [3] amounted to 19 mm; in experiment [5], 18 mm; in experiment [7], 20.8 mm; in experiment [8], 20 mm; in experiment [12], 16.8 mm; in [13], 16.8 mm.

For `O=C(Cn1ncc2cc([N+](=O)[O-])ccc21)N/N=C/c1ccccc1Br`, the MIC amounted to 28 µg/mL (≈ 69.6 µM) in experiment [1]; 18 µg/mL (≈ 44.8 µM) in experiment [4]; 18 µg/mL (≈ 44.8 µM) in [6]; 15 µg/mL (≈ 37.3 µM) in experiment [11]; 19 µg/mL (≈ 47.2 µM) in [16]; 22 µg/mL (≈ 54.7 µM) in experiment [17]. In addition, the zone of inhibition at 100 µg/mL in experiment [2] is 19.8 mm; in experiment [9], 18 mm; in [10] it was 17.4 mm; in experiment [14], 19.4 mm; in [15], 19.4 mm; in [18] it was 19 mm. Also, the zone of inhibition at 50 µg/mL was 16.8 mm in experiment [3]; 15 mm in experiment [5]; 17.8 mm in experiment [7]; 16.4 mm in experiment [8]; 14 mm in experiment [12]; 13.3 mm in experiment [13].

As for `O=C(Cn1ncc2cc([N+](=O)[O-])ccc21)N/N=C/c1cccc(Br)c1`, the MIC in experiment [1] came out at 25 µg/mL (≈ 62.2 µM); in experiment [4], 18 µg/mL (≈ 44.8 µM); in experiment [6] it was 18 µg/mL (≈ 44.8 µM); in [11], 15 µg/mL (≈ 37.3 µM); in experiment [16] it was 18 µg/mL (≈ 44.8 µM); in [17], 21 µg/mL (≈ 52.2 µM). In addition, the zone of inhibition at 100 µg/mL in [2] came out at 20.7 mm; in experiment [9] it was 19 mm; in [10] it was 18.3 mm; in experiment [14], 20.9 mm; in experiment [15], 20.1 mm; in experiment [18], 20 mm. For the same compound, the zone of inhibition at 50 µg/mL was 17.4 mm in experiment [3]; 15.9 mm in experiment [5]; 18.8 mm in experiment [7]; 17.8 mm in experiment [8]; 15.1 mm in experiment [12]; 14.5 mm in [13].

In the case of `O=C(Cn1ncc2cc([N+](=O)[O-])ccc21)N/N=C/c1ccccc1[N+](=O)[O-]`, the MIC in experiment [1] was 20 µg/mL (≈ 54.3 µM); in [4] it was 15 µg/mL (≈ 40.7 µM); in [6], 15 µg/mL (≈ 40.7 µM); in experiment [11], 11 µg/mL (≈ 29.9 µM); in experiment [16], 14 µg/mL (≈ 38 µM); in [17], 17 µg/mL (≈ 46.2 µM). Also, the zone of inhibition at 100 µg/mL in experiment [2] worked out at 24.2 mm; in experiment [9] it was 22.7 mm; in experiment [10] it was 21 mm; in experiment [14] it was 24 mm; in experiment [15], 22.8 mm; in experiment [18], 22.8 mm. Besides, the zone of inhibition at 50 µg/mL turned out to be 20 mm in experiment [3]; 19 mm in [5]; 22 mm in [7]; 21.4 mm in experiment [8]; 18 mm in experiment [12]; 18 mm in [13].

Regarding `O=C(Cn1ncc2cc([N+](=O)[O-])ccc21)N/N=C/c1cccc([N+](=O)[O-])c1`, the minimum inhibitory concentration (MIC) in [1] came to 18 µg/mL (≈ 48.9 µM); in experiment [4] it was 15 µg/mL (≈ 40.7 µM); in [6], 15 µg/mL (≈ 40.7 µM); in experiment [11], 11 µg/mL (≈ 29.9 µM); in experiment [16], 13 µg/mL (≈ 35.3 µM); in [17], 16 µg/mL (≈ 43.4 µM). Moreover, the zone of inhibition at 100 µg/mL in experiment [2] is 25.4 mm; in [9], 23.8 mm; in [10], 21.9 mm; in experiment [14] it was 24.9 mm; in experiment [15], 23.5 mm; in [18] it was 23.6 mm. The zone of inhibition at 50 µg/mL in experiment [3] turned out to be 20.9 mm; in experiment [5], 20 mm; in [7], 22.9 mm; in [8], 22.5 mm; in experiment [12] it was 18.7 mm; in [13], 19 mm.

`COc1ccccc1/C=N/NC(=O)Cn1ncc2cc([N+](=O)[O-])ccc21`: the MIC in experiment [1] came to 35 µg/mL (≈ 99.1 µM); in experiment [4] it was 27 µg/mL (≈ 76.4 µM); in experiment [6], 30 µg/mL (≈ 84.9 µM); in experiment [11], 20 µg/mL (≈ 56.6 µM); in [16], 23 µg/mL (≈ 65.1 µM); in [17], 38 µg/mL (≈ 108 µM). For the same compound, the zone of inhibition at 100 µg/mL was found to be 15.2 mm in experiment [2]; 12.8 mm in experiment [9]; 12.8 mm in [10]; 14 mm in experiment [14]; 14 mm in experiment [15]; 13.5 mm in experiment [18]. Moreover, the zone of inhibition at 50 µg/mL in [3] was 11.5 mm; in experiment [5], 9.8 mm; in experiment [7] it was 12.6 mm; in experiment [8] it was 11 mm; in experiment [12], 9 mm; in experiment [13] it was 9.1 mm.

With `COc1ccc(/C=N/NC(=O)Cn2ncc3cc([N+](=O)[O-])ccc32)cc1`, the MIC in [1] worked out at 32 µg/mL (≈ 90.6 µM); in [4] it was 25 µg/mL (≈ 70.8 µM); in experiment [6], 25 µg/mL (≈ 70.8 µM); in experiment [11] it was 18 µg/mL (≈ 50.9 µM); in experiment [16], 22 µg/mL (≈ 62.3 µM); in experiment [17] it was 38 µg/mL (≈ 108 µM). Also, the zone of inhibition at 100 µg/mL in experiment [2] is 16.2 mm; in experiment [9] it was 14 mm; in experiment [10], 13.9 mm; in experiment [14] it was 15.1 mm; in experiment [15] it was 15 mm; in experiment [18] it was 14.8 mm. The zone of inhibition at 50 µg/mL in [3] is 12.6 mm; in experiment [5], 11 mm; in [7] it was 13.9 mm; in experiment [8] it was 12.2 mm; in experiment [12], 10 mm; in experiment [13] it was 10 mm.

As for `Cc1ccc(/C=N/NC(=O)Cn2ncc3cc([N+](=O)[O-])ccc32)cc1`, the MIC in experiment [1] was found to be 38 µg/mL (≈ 113 µM); in [4] it was 31 µg/mL (≈ 91.9 µM); in experiment [6], 34 µg/mL (≈ 101 µM); in [11], 25 µg/mL (≈ 74.1 µM); in experiment [16] it was 30 µg/mL (≈ 88.9 µM); in [17] it was 42 µg/mL (≈ 125 µM). For the same compound, the zone of inhibition at 100 µg/mL in [2] is 12.6 mm; in experiment [9], 10 mm; in experiment [10], 9 mm; in experiment [14], 11 mm; in experiment [15] it was 11 mm; in experiment [18] it was 10 mm. The zone of inhibition at 50 µg/mL in experiment [3] was determined as 9 mm; in experiment [5], 7 mm; in experiment [7], 10.8 mm; in experiment [8], 8 mm; in [12] it was 6 mm; in experiment [13], 7.1 mm.
